# In patent publication EP0012729A1, “Therapeutic compositions containing as active compound a substituted acetic acid or its salt” ("IBIS" ISTITUTO BIOCHIMICO SPERIMENTALE S.p.A., priority 1978, dated 1980):
# System: Wistar rats
# Experiment: Choleretic activity in the rat, bile fistula method
# Type: in vivo
# Conditions: for R.S. (dry residue): pooled bile; for ml of bile flow ± s.e.: second series
# Description: It is known that the primary effect of a choleretic agent is to increase the bile flow and the quantity of solid substances excreted with the bile. A good choleretic must provide this effect in a sufficiently intense and prolonged manner. In addition, as in the case of all drugs, it must have low acute toxicity and good general tolerability, but in particular must be free from toxic effects on the organ on which it is required to act, i.e. the liver, whether this is in a normal or pathological state. The analysis of the new product in comparison with the best known products for the same therapeutic use has therefore been focused on these aspects. The choleretic activity of the new product has been determined in the rat by using the bile fistula method. Wistar rats of both sexes and having a weight of between 180 and 240 g were used.
# The animals, which were kept fasting for 12 hours but with free access to water, were narcotised by ethyl urethane in a dose of 1 g/kg by intra peritoneal or intramuscular injection.
# After binding the animals to the retention bed, a median laparatomy was carried out, and when the bile duct had been isolated a cannula needle was inserted into it. A polythene tube was then inserted into those ani mals which were to receive the products intraduodenally, after which a su ture was carried out on the abdominal wall, and the bile was allowed to discharge for 30 minutes after inserting the cannula in the bile duct, so as to allow the discharge to become normal. The bile was then collec ted for one hour.
# Having determined the volume of bile discharged during this first hour of collection (base volume), the products under examination were administered at the predetermined doses and by the predetermined methods. The bile excreted by the individual animals was then collected over each hour for a further six hours.
# During the experiments, the animals were kept at ambient temperature of about 22°C, and at regular intervals of two hours received 10 ml/kg of physiological solution s.c.
# The liquids were administered at a temperature of 37°C.
# The bile flow and cholesterol excretion were determined on those bile fractions excreted by the animals over each hour starting from the base hour until the end of the experiment
# The dry residue (R.So) was determined on the bile fraction excreted during the base hour and on the total bile fractions excreted during the sub sequent hours. For practical reasons, the determination of the dry residue and of the cholesterol (carried out by the Sperry & Webb method) were carried out on the pool of bile excreted by the entire group of animals subjected to the same treatment instead of on the bile fractions excreted by the individual animals (which was sometimes insufficient for determining the cholesterol).
# In compiling the graphs, the differences between the choleresis in the treated animals and that in the controls was calculated over the considered time intervals, and expressed as a percentage of the base choleresis. For this calculation, the following formula was used: [formula] where Cn and C' represent the choleresis (in ml/kg/h for the bile flow, and in mg/kg/h for the dry residue) determined over the considered time interval for the group of treated animals and the group of controls respectively. Cb and C'b represent the base choleresis in the group of treated animals and group of controls respectively.
# This index was calculated as the time for halving the maximum choleresis increase recorded under their effect.
compound,measurement,setting,value
"C[C@H](CCC(=O)O)[C@H]1CC[C@H]2[C@@H]3C(=O)C[C@@H]4CC(=O)CC[C@]4(C)[C@H]3CC(=O)[C@]12C [Dehydrocholic acid, dehydrocholic acid]",Flow,"25 mg/kg p.o., 0 (base hour)","2,46±0,05 ml/kg/h"
same,R.S. (dry residue),"25 mg/kg p.o., 0 (base hour)","59,8 mg/kg/h"
same,Flow,"25 mg/kg p.o., 1h","3,33±0,14 ml/kg/h"
same,R.S. (dry residue),"25 mg/kg p.o., 1h","84,1 mg/kg/h"
same,Flow,"25 mg/kg p.o., 2h","1,88±0,14 ml/kg/h"
same,Flow,"25 mg/kg p.o., 3h","2,19±0,15 ml/kg/h"
same,Flow,"25 mg/kg p.o., 4h","1,92±0,17 ml/kg/h"
same,Flow,"25 mg/kg p.o., 5h","1,77±0,16 ml/kg/h"
same,Flow,"25 mg/kg p.o., 6h","1,29±0,15 ml/kg/h"
same,R.S. (dry residue),"25 mg/kg p.o., subsequent hours 2h-6h","41,0 mg/kg/h"
same,Flow,"50 mg/kg i.d., 0 (base hour)","2,31±0,15 ml/kg/h"
same,R.S. (dry residue),"50 mg/kg i.d., 0 (base hour)","61,9 mg/kg/h"
same,Flow,"50 mg/kg i.d., 1 h","3,82±0,26 ml/kg/h"
same,R.S. (dry residue),"50 mg/kg i.d., 1 h","98,5 mg/kg/h"
same,Flow,"50 mg/kg i.d., 2 h","2,51±0,17 ml/kg/h"
same,Flow,"50 mg/kg i.d., 3 h","2,63±0,19 ml/kg/h"
same,Flow,"50 mg/kg i.d., 4 h","1,93±0,12 ml/kg/h"
same,Flow,"50 mg/kg i.d., 5 h","1,87±0,13 ml/kg/h"
same,Flow,"50 mg/kg i.d., 6 h","1,45±0,14 ml/kg/h"
same,R.S. (dry residue),"50 mg/kg i.d., subsequent hours 2h-6h (printed under 4 h)","44,5 mg/kg/h"
same,Flow,"100 mg/kg i.d., 0 (base hour)","1,80±0,09 ml/kg/h"
same,R.S. (dry residue),"100 mg/kg i.d., 0 (base hour)","52,3 mg/kg/h"
same,Flow,"100 mg/kg i.d., 1 h","4,59±0,24 ml/kg/h"
same,R.S. (dry residue),"100 mg/kg i.d., 1 h","147,0 mg/kg/h"
same,Flow,"100 mg/kg i.d., 2 h","2,45±0,10 ml/kg/h"
same,Flow,"100 mg/kg i.d., 3 h","1,98±0,09 ml/kg/h"
same,Flow,"100 mg/kg i.d., 4 h","1,82±0,09 ml/kg/h"
same,Flow,"100 mg/kg i.d., 5 h","1,82+0,08 ml/kg/h"
same,Flow,"100 mg/kg i.d., 6 h","1,55±0,08 ml/kg/h"
same,R.S. (dry residue),"100 mg/kg i.d., subsequent hours 2h-6h (printed under 4 h)","49,9 mg/kg/h"
same,Flow,"100 mg/kg p.o., 0 (base hour)","2,23±0,22 ml/kg/h"
same,R.S. (dry residue),"100 mg/kg p.o., 0 (base hour)","55,4 mg/kg/h"
same,Flow,"100 mg/kg p.o., 1h","3,75±0,75 ml/kg/h"
same,R.S. (dry residue),"100 mg/kg p.o., 1h","98,6 mg/kg/h"
same,Flow,"100 mg/kg p.o., 2h","2,60±0,24 ml/kg/h"
same,Flow,"100 mg/kg p.o., 3h","2,15±0,28 ml/kg/h"
same,Flow,"100 mg/kg p.o., 4h","2,10±0,24 ml/kg/h"
same,Flow,"100 mg/kg p.o., 5h","1,64±0,20 ml/kg/h"
same,Flow,"100 mg/kg p.o., 6h","1,64±0,24 ml/kg/h"
same,R.S. (dry residue),"100 mg/kg p.o., subsequent hours 2h-6h","45,5 mg/kg/h"
same,Flow,"200 mg/kg i.d., 0 (base hour)","2,28±0,09 ml/kg/h"
same,R.S. (dry residue),"200 mg/kg i.d., 0 (base hour)","71,0 mg/kg/h"
same,Flow,"200 mg/kg i.d., 1 h","8,10±0,38 ml/kg/h"
same,R.S. (dry residue),"200 mg/kg i.d., 1 h","255,0 mg/kg/h"
same,Flow,"200 mg/kg i.d., 2 h","3,76±0,10 ml/kg/h"
same,Flow,"200 mg/kg i.d., 3 h","2,69±0,07 ml/kg/h"
same,Flow,"200 mg/kg i.d., 4 h","2,77±0,13 ml/kg/h"
same,Flow,"200 mg/kg i.d., 5 h","2,34±0,11 ml/kg/h"
same,Flow,"200 mg/kg i.d., 6 h","2,16±0,08 ml/kg/h"
same,R.S. (dry residue),"200 mg/kg i.d., subsequent hours 2h-6h (printed under 4 h)","67,0 mg/kg/h"
same,Peak choleresis time of appearance,200 mg/kg p.o. (dose given for 1620 only),1st hour
same,Peak choleresis % increase,"200 mg/kg p.o. (dose given for 1620 only), increase over controls as percentage of base choleresis",94%
same,Duration index,"200 mg/kg p.o. (dose given for 1620 only), time for halving the maximum choleresis increase",45'
same,Flow,"200 mg/kg p.o., 0 (base hour)","2,75±0,17 ml/kg/h"
same,R.S. (dry residue),"200 mg/kg p.o., 0 (base hour)","85,8 mg/kg/h"
same,Flow,"200 mg/kg p.o., 1h","5,39±0,24 ml/kg/h"
same,R.S. (dry residue),"200 mg/kg p.o., 1h","171,9 mg/kg/h"
same,Flow,"200 mg/kg p.o., 2h","3,50±0,13 ml/kg/h"
same,Flow,"200 mg/kg p.o., 3h","2,64±0,19 ml/kg/h"
same,Flow,"200 mg/kg p.o., 4h","2,78±0,18 ml/kg/h"
same,Flow,"200 mg/kg p.o., 5h","2,61±0,13 ml/kg/h"
same,Flow,"200 mg/kg p.o., 6h","2,38±0,14 ml/kg/h"
same,R.S. (dry residue),"200 mg/kg p.o., subsequent hours 2h-6h","74,9 mg/kg/h"
same,Flow,"400 mg/kg p.o., 0 (base hour)","2,53±0,10 ml/kg/h"
same,R.S. (dry residue),"400 mg/kg p.o., 0 (base hour)","71,8 mg/kg/h"
same,Flow,"400 mg/kg p.o., 1h","7,68±0,20 ml/kg/h"
same,R.S. (dry residue),"400 mg/kg p.o., 1h","238,6 mg/kg/h"
same,Flow,"400 mg/kg p.o., 2h","4,70±0,45 ml/kg/h"
same,Flow,"400 mg/kg p.o., 3h","3,06±0,15 ml/kg/h"
same,Flow,"400 mg/kg p.o., 4h","2,59±0,16 ml/kg/h"
same,Flow,"400 mg/kg p.o., 5h","2,29±0,12 ml/kg/h"
same,Flow,"400 mg/kg p.o., 6h","1,97±0,15 ml/kg/h"
same,R.S. (dry residue),"400 mg/kg p.o., subsequent hours 2h-6h","77,8 mg/kg/h"
same,ml of bile flow ± s.e.,"oral by gastric probe 25 mg/kg, 0 (base values)","2,4±0,21 ml"
same,ml of bile flow ± s.e.,"oral by gastric probe 25 mg/kg, 1 h","3,0±0,25 ml"
same,ml of bile flow ± s.e.,"oral by gastric probe 25 mg/kg, 2 h","2,0±0,12 ml"
same,ml of bile flow ± s.e.,"oral by gastric probe 25 mg/kg, 3 h","1,9±0,11 ml"
same,ml of bile flow ± s.e.,"oral by gastric probe 25 mg/kg, 4 h","1,7±0,13 ml"
same,ml of bile flow ± s.e.,"oral by gastric probe 25 mg/kg, 5 h","1,7±0,10 ml"
same,ml of bile flow ± s.e.,"oral by gastric probe 25 mg/kg, 6 h","1,4±0,11 ml"
same,ml of bile flow ± s.e.,"oral by gastric probe 50 mg/kg, 0 (base values)","2,5±0,16 ml"
same,ml of bile flow ± s.e.,"oral by gastric probe 50 mg/kg, 1 h","3,9±0,18 ml"
same,ml of bile flow ± s.e.,"oral by gastric probe 50 mg/kg, 2 h","2,1±0,16 ml"
same,ml of bile flow ± s.e.,"oral by gastric probe 50 mg/kg, 3 h","1,9±0,14 ml"
same,ml of bile flow ± s.e.,"oral by gastric probe 50 mg/kg, 4 h","1,8±0,17 ml"
same,ml of bile flow ± s.e.,"oral by gastric probe 50 mg/kg, 5 h","1,7±0,11 ml"
same,ml of bile flow ± s.e.,"oral by gastric probe 50 mg/kg, 6 h","1,5±0,13 ml"
